Laboratory results reported in patent US20260049061A1, “SMALL MOLECULES AS KCNQ2/3 (KV7.2/3) CHANNEL ACTIVATORS AND THEIR MEDICAL USE THEREOF” (Humanwell Pharmaceutical US, Inc., priority 2024, published 2026).

biological target: T1, KNCQ2/3 (Kv7.2/7.3) (Homo sapiens, UniProt O43525+O43526); assay: Kv7.2/7.3 (KNCQ2/3) activation assay, QPatch single concentration screen; type: cell-based; conditions: increase in current over baseline, HEK293 cells with overexpressed Kv7.2/3, compound 1 μM, steady-state current at +40 mV
T1 construct: host or cells: HEK293
Protocol: The ability of compounds to potentiate K-currents in HEK293 cells with overexpressed KNCQ2/3 (Kv7.2/7.3) was assessed using patch clamp on the QPatch automated screening platform.
Cell Line: The HEK293 cell line with overexpressed Kv7.2/7.3 was obtained from ICE Bioscience Inc. These HEK cells have been engineered to overexpress the Kv7.2/3 ion channels.
Cell Culture: Cells were maintained in the media containing DMEM (Corning, cat. #10-013-CV), 10% FBS (Gibco, cat. #10099141C), 800 μg/mL G418 (GPC, cat. #AK108) and 200 μg/mL hygromycin B (Solarbio, cat. #H8080). The cells were incubated at 37° C. in a humidified incubator under 5% carbon dioxide. Cells were grown in 6 cm dishes to ˜80% confluency. Currents were recorded 24 hours after channel induction.
Compound Plates: Test compounds were prepared by performing serial dilutions in DMSO (Sigma cat #D4540). Final dilutions were made in external recording solution with a final DMSO concentration of 0.1% DMSO. For single concentration screens each plate had 10 μM retigabine (Selleck Chemicals, cat. #S4733) as a positive control.
Electrophysiology: External solution contained 140 mM NaCl (Sigma cat. #S5886), 3.5 mM KCl (Sigma cat. #P5405), 1 mM MgCl2·6H2O (Sigma cat. #M2393), 2 mM CaCl2·2H2O (Sigma cat. #C7902), 10 mM D-Glucose (Sigma cat. #G8270), 10 mM HEPES (Santa Cruz cat. #SC-29097A), 1.25 mM NaH2PO4·2H2O, pH was adjusted to 7.4 with NaOH. Internal solution contained 125 mM K-Aspartic (Sigma cat. #G4500), 20 mM KCl, 10 mM EGTA (Sigma cat. #E3889), 1 mM MgCl2·6H2O, 5 mM Mg-ATP (Sigma cat. #A9187), 5 mM HEPES, pH was adjusted to 7.2 with KOH.
On the day of the experiment cells are washed with the external solution and harvested with 0.25% Trypsin EDTA (Gibco cat. #25200-072). Cells were then centrifuged at 1000 rpm/min for 5 minutes and resuspended in the external solution at ˜2.5×10^6 cells/mL. The cells were stirred with an equilibrium sharker for 20 minutes at room temperature before experiments started.
Potassium channel activity was measured on the QPatch 48X (Sophion Bioscience) using QPlates with 48-wells plate. The KCNQ current was recorded when the voltage was held at −80 mV for 3s, then stepped to −30 mV for 500 ms and back to […]. The process was repeated with an increment of 10 mV between −80 mV and +40 mV. Each cell was taken as an independent experiment and only one compound was tested per well.
Single Concentration Screen: Baseline conditions were obtained by recording 5 sweeps in the external solution only, this was repeated for three applications of the external solution. The effect of test compounds on elicited current was then assessed by recording 5 sweeps in the presence of a 1 μM compound solution. The steady-state current at the end of the 2 s pulse to +40 mV was measured to determine the fold increase from baseline.

SMILES	activity at 1 µM
CC(C)(C)CC(=O)Nc1nn2c(c1-c1ccc(F)cc1)CN(C1CC1)CC2 [Compound 43]	200 to 300%
CC(C)(C)CC(=O)Nc1nn2c(c1C1CCC1)CCCC2 [Compound 8]	200 to 300%
COC1CCn2nc(NC(=O)CC(C)(C)C)c(-c3ccc(F)cc3)c2C1 (stereo not drawn) [Compound 12]	200 to 300%
O=C(CC1CC(F)(F)C1)Nc1nn2c(c1-c1ccc(F)cc1)CC(C(F)(F)F)CC2 (stereo not drawn) [Compound 32]	≥ 300%
C=CCN1CCn2nc(NC(=O)CC(C)(C)C)c(-c3ccc(F)cc3)c2C1 [Compound 44]	100 to 200%
CC(C)(C)CC(=O)Nc1nc2c(n1C(C)(C)C)CCCC2 [Compound 1]	100 to 200%
CC(C)(C)CC(=O)Nc1nn2c(c1-c1ccc(F)cc1)CN(C(F)(F)F)CC2 [Compound 7]	100 to 200%
O=C(CCC(F)(F)F)Nc1nn2c(c1-c1ccc(F)cc1)CC(C(F)(F)F)CC2 (stereo not drawn) [Compound 34]	200 to 300%
CC(C)(F)CC(=O)Nc1nn2c(c1-c1ccc(F)cc1)CC(C(F)(F)F)CC2 (stereo not drawn) [Compound 36]	≥ 300%
CC1(CC(=O)Nc2nn3c(c2-c2ccc(F)cc2)CC(C(F)(F)F)CC3)CC1 (stereo not drawn) [Compound 35]	≥ 300%
CC(C)(C)CC(=O)Nc1nc2n(c1C1CCCCC1)CCCC2 [Compound 53]	100 to 200%
CC(C)(C)CC(=O)Nc1nc2ncccc2n1-c1ccc(F)cc1 [Compound 60]	100 to 200%
CC(C)(C)CC(=O)Nc1nn2c(c1-c1ccc(F)cc1)CC1(CC2)CC(F)(F)C1 [Compound 55]	≥ 300%
CC(C)(C)CC(=O)Nc1nc2c(n1C1CCC1)CCCC2 [Compound 3]	100 to 200%
O=C(CC12CC(C1)C2)Nc1nn2c(c1-c1ccc(F)cc1)CC(C(F)(F)F)CC2 (stereo not drawn) [Compound 33]	≥ 300%
CC(C)(C)CC(=O)Nc1nn2c(c1C1=CCCCC1)CC(C(F)(F)F)CC2 (stereo not drawn) [Compound 14]	200 to 300%
CCn1c(NC(=O)CC(C)(C)C)nc2c1CCCC2 [Compound 65]	200 to 300%
O=C(CC1CSC1)Nc1nn2c(c1-c1ccc(F)cc1)CC(C(F)(F)F)CC2 (stereo not drawn) [Compound 37]	100 to 200%
CC(C)(C)CC(=O)Nc1nn2c(c1C1CCCCC1)CC(C(F)(F)F)CC2 (stereo not drawn) [Compound 15]	≥ 300%
CC(C)(CC(=O)Nc1nn2c(c1-c1ccc(F)cc1)CC(C(F)(F)F)CC2)C(F)(F)F (stereo not drawn) [Compound 10]	≥ 300%
CC(C)(C)CC(=O)Nc1nc2n(c1-c1ccc(OC(F)(F)F)cc1)CCCC2 [Compound 54]	200 to 300%
CC(C)(C)CC(=O)Nc1nn2c(c1-c1cccnc1)CC(C(F)(F)F)CC2 (stereo not drawn) [Compound 16]	100 to 200%
CCn1c(NC(=O)CC(C)(C)C(F)(F)F)nc2c1CCCC2 [Compound 64]	100 to 200%
CC(C)(C)CC(=O)Nc1nn2c(c1C1CCC1)CC(C(F)(F)F)CC2 (stereo not drawn) [Compound 20]	≥ 300%
CC(C)(CC(=O)Nc1nn2c(c1-c1ccc(F)cc1)CN(C1CC1)CC2)C(F)(F)F [Compound 47]	100 to 200%

system: PTZ-induced epileptic model using ICR mice; assay: PTZ-induced epilepsy model in ICR mice; type: in vivo; conditions: male ICR mice, 10 mg/kg oral 30 min before PTZ 100 mg/kg i.p., recorded for 30 min
Protocol: SPF-grade male ICR mice (22-24 g) were purchased from Human Silaike Jingda Laboratory Animal Co. Ltd., China and sent to the housing facility after veterinary inspection to adapt to the rearing environment. The mice were housed in cages for 3 days under suitable conditions (temperature at 22±1° C., humidity at 40-70%, sufficient water and food, 12 hours of daylight). On the formal test day, all mice were weighed, and those meeting the weight criteria were numbered at the base of their tails. […] Animals were orally administered compound 34 (10 mg/kg) 30 min before the i.p. injection of PTZ (100 mg/kg, Sigma, USA) for epilepsy modeling. The seizure response of the mice was evaluated based on the epilepsy grading criteria. The latency and incidence rate of each seizure grade were recorded for 30 min. After the experiment, the test animals were euthanized using carbon dioxide. The results are shown in Table 2 and FIG. 1 respectively.

SMILES	Latency to Racine IV Seizure	Latency to Racine VI Seizure
O=C(CCC(F)(F)F)Nc1nn2c(c1-c1ccc(F)cc1)CC(C(F)(F)F)CC2 (stereo not drawn) [Compound 34]	1393 s	1658 s
CC(C)(CC(=O)Nc1nn2c(c1-c1ccc(F)cc1)CCCC2)C(F)(F)F [Compound 38]	784 s	1320 s
CC(C)CS(=O)(=O)Nc1nn2ccc(Cl)cc2c1-c1ccc(F)cc1 [Compound 62]	636 s	1409 s

system: formalin model using SD rats; assay: 2% formalin rat model (paw licking); type: in vivo; conditions: male SD rats, 10 mg/kg oral 15 min before intraplantar 2.0% formalin, paw licking monitored for 60 min
Protocol: SPF male SD rats (170-190 g) were purchased from Human Silaike Jingda Laboratory Animal Co. Ltd., China. The rats were housed in cages for 3 days under suitable conditions (temperature at 22±1° C., humidity at 40-70%, sufficient water and food, 12 hours of daylight). The rats with a body weight of 220-240 g were numbered for further experiments. The rats were placed in the ZH-PAN801 automated rodent behavioral tracking system (Anhui Zhenghua Biologic Apparatus Facilities) for 60 min per day for an additional 3 days.
Paw licking behavior, a correlation of spontaneous pain, was tracked using the ZH-PAN801 automated rodent behavioral tracking system that can differentiate behaviors and locomotor activity of individually housed rats. The ZH-PAN801 system consists of sensor platforms which rest on two orthogonally placed force transducers and a third fixed point attached to a base plate. Each force transducer transforms the mechanical vibrations caused by animal movement into electrical signals, which are amplified, filtered, and digitized by the ZH-PAN801 system. Characteristic movements have their own unique vibrational patterns which the ZH-PAN801 software can distinguish. The cylinder cages (75 mm (radius)×310 mm (height)) consist of two halves to sensitize detection of vibrations. Thus, the base is separate from the sides, the lid, and sits directly on the sensor platform, while the sides and the lid hang from supports on the base plate.
Rats were equipped with the force transducer 15 min before the dosing. Animals were orally administered compound 21 (10 mg/kg) 15 min before the formalin injection. Rats were administered an intraplantar injection of formalin (50 μL, 2.0%, Sigma, USA) into the dorsal surface of the hindpaw attached with the force transducer to induce acute pain and placed in the automated rodent behavioral tracking system. Paw licking behavior was monitored for 60 min using the ZH-PAN801 behavior tracking system. The duration of paw licking behavior (in minutes) was collected from two distinctive phases, the early nociceptive phase occurring 0-10 min after formalin injection and the late phase thought to be associated with central sensitization, which peaks 11-60 min after formalin injection. Treatment effects were compared to vehicles by an unpaired t-test and one-way ANOVA using Graph Pad 9.0. The results are shown in Table 3 and FIG. 2 respectively.

SMILES	% MPE (10 mpk)
CC(C)(C)n1c(NC(=O)CC(C)(C)C(F)(F)F)nc2cc3c(cc21)CNC3 [Compound 58]	89%
CC(C)(CC(=O)Nc1nn2c(c1-c1ccc(F)cc1)C[C@@H](C(F)(F)F)CC2)C(F)(F)F [Compound 24]	97%
O=C(CCC(F)(F)F)Nc1nn2c(c1-c1ccc(F)cc1)CC(C(F)(F)F)CC2 (stereo not drawn) [Compound 34]	65%
CC(C)(CC(=O)Nc1nn2c(c1-c1ccc(F)cc1)CCCC2)C(F)(F)F [Compound 38]	87%
CC(C)CS(=O)(=O)Nc1nn2ccc(Cl)cc2c1-c1ccc(F)cc1 [Compound 62]	89%
